Test results published in ChEMBL document CHEMBL4699565, “Computational modeling and target synthesis of monomethoxy-substituted o-diphenylisoxazoles with unexpectedly high antimitotic microtubule destabilizing activity” (Bioorg Med Chem Lett, 2020).

What was measured:
Paracentrotus lividus [1] = test: Antimitotic activity against sea urchin embryo assessed as cleavage alteration measured 2.5 to 6 hrs post-fertilization by light microscopy analysis; assay type: functional
Tubulin (Homo sapiens) = Tubulin (Homo sapiens) (UniProt P68371+Q9H4B7+P0DPH7+P68366+Q13509+Q71U36+P04350+Q3ZCM7+P07437+P68363+Q9BQE3+Q6PEY2+Q13885+Q9BVA1+Q9BUF5); test: Binding affinity to tubulin (unknown origin) assessed as change in gibbs free energy; assay type: protein-complex assay
Paracentrotus lividus [2] = test: Antimitotic activity against sea urchin embryo assessed as embryo spinning measured 2.5 to 6 hrs post-fertilization observed after 15 min to 20 hrs of treatment by light microscopy analysis; assay type: functional; details: time hrs 0.25-20
Paracentrotus lividus [3] = test: Antimitotic activity against sea urchin embryo assessed as cleavage arrest measured 2.5 to 6 hrs post-fertilization by light microscopy analysis; assay type: functional; details: time hrs 2.5-6
K562 = test: Cytotoxicity against human K562 cells; assay type: functional, cell-based
Paracentrotus lividus [4] = test: Antimitotic activity against sea urchin embryo assessed as cleavage arrest by phase microscopy analysis; assay type: functional
[5] = system: Panel NCI-60 (60 carcinoma cell lines); test: Cytotoxicity against human NCI60 cells; assay type: functional
MDA-MB-435 = test: Cytotoxicity against human MDA MB 435 cells; assay type: functional

Compound `COc1ccc(-c2nocc2-c2ccccc2)cc1` has an EC (Paracentrotus lividus [1]) of 0.2 µM, a deltaG (Tubulin (Homo sapiens)) of -9.15 kcal/mol and an EC (Paracentrotus lividus [2]) of 2 µM. It also gave an EC (Paracentrotus lividus [3]) of 2 µM.

`COc1ccc(-c2cnoc2-c2ccccc2)cc1` was tested, and the EC (Paracentrotus lividus [1]) was 0.002 µM, the deltaG (Tubulin (Homo sapiens)) was -11.9 kcal/mol and the EC (Paracentrotus lividus [2]) was 0.1 µM. It also gave an EC (Paracentrotus lividus [3]) of 0.02 µM.

`COc1ccc(/C=C\c2cc(OC)c(OC)c(OC)c2)cc1O` [COMBRETASTATIN A4] gave an IC50 (K562) of 1 nM, an EC (Paracentrotus lividus [1]) of 0.002 µM and a deltaG (Tubulin (Homo sapiens)) of -11.9 kcal/mol. The EC (Paracentrotus lividus [2]) was 0.05 µM and the EC (Paracentrotus lividus [3]) was 0.01 µM.

Compound `COc1cc2c(c(OC)c1OC)-c1cc3c(cc1[C@H](OC(C)=O)[C@H]1COC(=O)[C@@H]1C2)OCO3` [(-)-STEGANACIN] has an EC (Paracentrotus lividus [4]) of 0.3 µM.

For `COc1ccc(-c2conc2-c2ccccc2)cc1`, the IC50 (K562) was 47 nM, the EC (Paracentrotus lividus [1]) was 0.005 µM and the GI50 [5] was 457 nM. For the same compound, the deltaG (Tubulin (Homo sapiens)) was -11.3 kcal/mol, the EC (Paracentrotus lividus [2]) was 0.1 µM and the EC (Paracentrotus lividus [3]) was 0.05 µM. The GI50 (MDA-MB-435) was 26 nM.

`COc1ccc(-c2nocc2-c2cc(OC)c(OC)c(OC)c2)cc1` gave a deltaG (Tubulin (Homo sapiens)) of -10.9 kcal/mol.

Compound `COc1cc2c(c(OC)c1OC)-c1ccc(OC)c(=O)cc1[C@@H](NC(C)=O)CC2` [COLCHICINE] has an EC (Paracentrotus lividus [1]) of 0.05 µM, an EC (Paracentrotus lividus [2]) of 0.05 µM and an EC (Paracentrotus lividus [3]) of 0.1 µM.

For `COc1cc(-c2cc(-c3cccc(O)c3)cnc2N)cc(OC)c1OC`, the EC (Paracentrotus lividus [1]) was 0.1 µM, the EC (Paracentrotus lividus [2]) was 1 µM and the EC (Paracentrotus lividus [3]) was 1 µM.

With `COc1ccc(-c2oncc2-c2ccccc2)cc1` the EC (Paracentrotus lividus [1]) was 0.2 µM, the deltaG (Tubulin (Homo sapiens)) was -9.15 kcal/mol and the EC (Paracentrotus lividus [2]) was >5 µM. The EC (Paracentrotus lividus [3]) was 2 µM.

`COc1cc([C@@H]2c3cc4c(cc3[C@H](O)[C@H]3COC(=O)[C@H]23)OCO4)cc(OC)c1OC` [PODOFILOX] gave an EC (Paracentrotus lividus [1]) of 0.02 µM, an EC (Paracentrotus lividus [2]) of 0.5 µM and an EC (Paracentrotus lividus [3]) of 0.05 µM.
